{"source": "patent US9796755B2", "about": "“Methods of treating depression and other related diseases” (Northwestern University, priority 2009, dated 2017)", "key": {"rats [1]": {"test_system": "rats", "assay": "Drug discrimination in rats trained to discriminate ketamine from saline", "protocol": "Testing was conducted as described previously (Nicholson K L & Balster R L (2009) The discriminative stimulus effects of N-methyl-D-aspartate glycine-site ligands in NMDA antagonist-trained rats. Psychopharmacology (Berl) 203(2):441-451). Adult male Sprague Dawley rats were trained to discriminate ketamine (10 mg/kg IP) from saline. Animals were then tested following various doses of GLYX-13 administration (3-156 mg/kg SC) and the percent of ketamine lever responding and rates of responding were recorded."}, "rats [2]": {"test_system": "rats", "assay": "Porsolt test (Forced Swim Test), systemic dosing", "assay_type": "in vivo, rat", "settings": "for effect on floating times in the Porsolt test: Sprague Dawley rats, 20-60 min post dosing", "protocol": "For the evaluation of the antidepressant actions of GLYX-13, the effect of GLYX-13 in the Porsolt test of depression was examined in rats. Porsolt testing is the most commonly used test for assessment of depression in animal model, Porsolt testing, also known as Forced Swim Test, is based on a behavioral trait that is sensitive to changes in affective state. During this test, the animal is placed in a tank (18 cm diameter×45 cm height) filled to 30 cm with 22-23° C. water. After placing the animal in the tank, the amount of time for which the rat is immobile when it stops struggling is measured. Porsolt test is based on the fact that antidepressants increase the latency to immobility and decrease the time for which the rat is immobile. […] The interpretation of the Porsolt test is that the antidepressants reinstate active coping mechanisms and decrease the passive immobility evoked by stress.\nIn order to evaluate the effectiveness of GLYX-13 as antidepressant, three month old FBNF1 rats were separated into two groups of 9 animals. The first group of rats was intravenously injected with 10 mg/kg GLYX-13 and the second group of animals was intravenously injected with PBS vehicle (1 ml/kg) in a blind manner via chronic subdural femoral vein access ports. Both groups of animals were injected 10 to 15 minutes before the start of testing.\nFor Porsolt testing, animals were given a 15 minute pre-test habituation in the tank to induce learned helplessness on day one. Following this, on the subsequent day, the animals were injected with GLYX-13 or vehicle 10-15 minutes before being placed into the tank for a 5 minute test session. After placing the animals in the tank, the amount of time for which each animal is immobile when it stops struggling (Mean Immobility Time) was measured. Decrease in Mean Immobility Time is a measure of the effectiveness of the antidepressant.\nA second experiment was performed in the same manner as Example 1, except that 2-3 month Sprague-Dawley rats were used, and treated with either intravenous (1, 3, 10, 32 mg/kg), subcutaneous (1, 3, 10, 32, 56, 100 mg/kg) injections of GLYX-13 or saline vehicle (1 mg/ml) 15 (i,v.) or 20 (s.c.) min before the start of the final 5 min test session. Ketamine (10 mg/kg i.p.) was given 60 min befbre the start of testing (Garcia et al., (2008) Prog Neuropsychopharmacol Biol Psychiatry, 32, 140-144).\nTo determine whether the antidepressant effect of GLYX-13 was specific to the sequence of the GLXY-13 peptide, mean time (sec) spent floating in the Porsolt test was determined in groups of 12 three-month old Sprague Dawley rats administered with GLYX-13 (TPPT-NH2 (SEQ ID NO: 13); 3 mg/kg , i.v. tail vein), a scrambled peptide (PTPT-NH3(SEQ ID NO: 19); 3 mg/kg i.v. tail vein), or 0.9% saline vehicle (1 ml/kg, i.v. tail vein). Administration occurred 60 min before the 5 min testing session. Animals received a 15 min training swim session one day before dosing.\nTo evaluate whether the anti-depressive and anxiolytic effects of GLYX-13 would persist beyond a few hours, rats were tested in the Porsolt test and the Open Field test, described above. Groups of 10-11 three-month old Sprague-Dawley rats were pretreated with GLYX-13 (3 mg/kg i.v.), ketamine (10 mg/kg i.v.) or saline vehicle injection (1 mg/ml i.v. tail vein) 96 hrs before the start of testing. Animals received a single 15 min. training swim session one day before dosing. Animals were tested 96 hrs post dosing in the Porsolt test without any testing during the intervening period. Open field testing was conducted without pre-habituation 1 day after Porsolt testing (i.e. 120 hrs post dosing). Mean(±SEM) time (sec.) spent floating in the Porsolt test, time spent in the center compartment (sec.), and line crosses in the open field test were determined.\nThe Porsolt test adapted for use in rats was performed as above. […]"}, "rats [3]": {"test_system": "rats", "assay": "Conditioned place preference", "assay_type": "in vivo, rat", "settings": "GLYX-13 10 mg/kg IV; ketamine 10 mg/kg IV", "protocol": "Animals were trained with GLYX-13 (10 mg/kg, IV), ketamine (10 mg/kg, IV), or saline vehicle (1 mL/kg, IV) utilizing an unbiased two-chamber conditioned place preference apparatus."}, "[4]": {"test_system": "glycogen synthase kinase 3β (GSK-3β)", "assay": "Total and phosphoserine-9 GSK-3β by ELISA in medial prefrontal cortex", "assay_type": "in vivo, rat", "settings": "24 hrs after GLYX-13 3 mg/kg IV or ketamine 10 mg/kg IV", "source_text": "Total and Phosphoserine-9 glycogen synthase kinase 3β (GSK-3β) were quantified by ELISA according to the manufacturer's instructions (catalog numbers ADI-900-144 and ADI-900-123A, Assay Designs, USA). Total and phosphoserine-845 GluR1 were quantified by Western blot."}, "[5]": {"assay": "CSF concentration of GLYX-13 after IV administration (LC-MS/MS)", "assay_type": "in vivo", "settings": "male, Sprague Dawley, rat, cerebrospinal fluid (CSF), rats, read-out: Cmax within the CSF compartment", "protocol": "Male Sprague Dawley rats (250-300 g) received intravenous injections of GLYX-13 (3-10 mg/kg), briefly anesthetized with isoflurane, and cerebrospinal fluid (CSF) samples drawn and stored at −70° C. until analysis.\nCSF samples were precipitated with internal standard Pro-Thr-Pro-Ser-NH2 (SEQ ID NO: 20) in 400 μl of acetonitrile. Supernatant extract was separated by HPLC (LC-20AD, Shimadzu, Japan) using a Synergi 4μ Hydro-RP 8A column (Phenomenex, USA) with mobile phase of 100 mM ammonium formate with 0.1% formic acid for 0 1 minute followed by acetonitrile with 0.1% formic acid and samples were analyzed by LC-MS/MS (API4000, Applied Biosystems, USA) in ESI positive ion mode and the GLYX-13 (199.1 and 216.1) and IS (202.3) daughter ions quantified by multiple reaction monitoring. The lower limit of quantitation for the assay was 26.3 nM GLYX-13."}, "rats [6]": {"test_system": "rats", "assay": "Prepulse inhibition", "assay_type": "in vivo, rat", "settings": "Sprague-Dawley rats; GLYX-13 10 mg/kg IV tested 15 min post injection; ketamine 10 mg/kg IP tested immediately", "protocol": "Animals were given intravenous injections of GLYX-13 (10 mg/kg) or saline via chronic indwelling femoral vein cannulae and tested 15 min post injection, or intraperitoneal ketamine (10 mg/kg) or saline vehicle (1 mL/kg IV or IP respectively) and tested immediately post injection for prepulse inhibition."}}, "note": "Read-outs that look alike come from different tables or passages of the source. Where a SMILES comes first, the peptide text is derived from it."}
{"smiles": "C[C@@H](O)[C@H](N)C(=O)N1CCC[C@H]1C(=O)N1CCC[C@H]1C(=O)N[C@H](C(N)=O)[C@@H](C)O", "note": "[GLYX-13, L-threonyl-L-prolyl-L-prolyl-L-threonine amide] (H-TPPT-NH2)", "values": [{"measurement": "suppression of operant responding (rates of responding)", "setting": "rats [1]; SC, 3-156 mg/kg", "result": "did not suppress operant responding at any dose"}, {"measurement": "ketamine-like discriminative stimulus effects (percentage ketamine-lever responding)", "setting": "rats [1]; SC, dose range 3-156 mg/kg", "result": "did not show any ketamine-like discriminative stimulus effects"}, {"measurement": "therapeutic index", "setting": "rats [1]; drug discrimination highest dose vs Porsolt active dose 10 mg/kg SC, printed as 170:10", "result": "≥ 17"}, {"measurement": "effect in the drug discrimination assay", "setting": "rats [1]; highest dose evaluated, 156 mg/kg SC", "result": "essentially without effect"}, {"measurement": "activity in the Porsolt test", "setting": "rats [2]; 10 mg/kg SC", "result": "active"}, {"measurement": "effect on floating times in the Porsolt test", "setting": "rats [2]; 3-10 mg/kg IV", "result": "significantly (P<0.05) reduced floating times"}, {"measurement": "effect on floating times in the Porsolt test", "setting": "rats [2]; 10-30 mg/kg SC", "result": "significantly (P<0.05) reduced floating times"}, {"measurement": "onset of action", "setting": "rats [2]; single dose, rats", "result": "within minutes"}, {"measurement": "conditioned place preference, an indicator of abuse potential", "setting": "rats [3]", "result": "did not exhibit either of these effects"}, {"measurement": "phosphoserine-9 GSK-3β/total GSK-3β ratio", "setting": "[4]", "result": "reduced"}, {"measurement": "Cmax", "setting": "[5]; 3 mg/kg IV", "result": 60, "unit": "nM"}, {"measurement": "Cmax", "setting": "[5]; 10 mg/kg IV", "result": 200, "unit": "nM"}, {"measurement": "prepulse inhibition, an indicator of dissociative effects", "setting": "rats [6]", "result": "did not exhibit either of these effects"}]}
